Read-outs that look alike come from different tables or passages of the source.
Columns and labels:
EV-A71 = assay: microbe, parasite or virus in culture; assay type: cell-based, enterovirus A71; conditions: Enterovirus A
CV-B3 [1] = assay: microbe, parasite or virus in culture; assay type: cell-based, coxsackievirus B3; conditions: for EC50: Enterovirus B
PV-1 = assay: microbe, parasite or virus in culture; assay type: cell-based, poliovirus 1; conditions: Enterovirus C, HeLa R19, read-out: EC50 PV-1
CV-A24 = assay: microbe, parasite or virus in culture; assay type: cell-based, coxsackievirus A24; conditions: Enterovirus C, CVA24, HeLa R19, read-out: EC50 CV-A24
EV-D68 = assay: microbe, parasite or virus in culture; assay type: cell-based, enterovirus D68; conditions: for EC50: Enterovirus D
HRV-A2 = assay: microbe, parasite or virus in culture; assay type: cell-based, human rhinovirus; conditions: for EC50: Human rhinovirus sp., HRVA2, HeLa R19, read-out: EC50 HRV-A2
HRV-B14 = assay: microbe, parasite or virus in culture; assay type: cell-based, human rhinovirus; conditions: for EC50: Human rhinovirus sp.
CV-B3 [2] = assay: microbe, parasite or virus in culture; assay type: cell-based, coxsackievirus B3; conditions: for EC50: Enterovirus B; remark: listed apart in the source
CV-B3 [3] = assay: microbe, parasite or virus in culture; assay type: cell-based, coxsackievirus B3; conditions: Enterovirus B, CVB3, BGM
in vitro [4] = conditions: human
in vitro [5] = conditions: human; remark: listed apart in the source
in vitro [6] = conditions: monkey
[7] = system: representative EVs and RVs; assay type: cell-based
[8] = EVA71, HeLa R19, read-out: EC50 EV-A71
[9] = EVA71, HeLa R19, read-out: EC50 Exp1
[10] = EVA71, HeLa R19, read-out: EC50 Exp2
[11] = CVB3, HeLa R19, read-out: CV-B3 EC50 Average
[12] = CVB3, HeLa R19, read-out: CV-B3 Exp 1 EC50
[13] = CVB3, HeLa R19, read-out: CV-B3 Exp2 EC50
[14] = CVB3, HeLa R19, read-out: EC50 HelaR19 Average
[15] = CVB3, HeLa R19, read-out: Exp 1 EC50 HelaR19
[16] = CVB3, HeLa R19, read-out: Exp 2 EC50 HelaR19
[17] = EVD68, HeLa R19, read-out: EC50 EV-D68
[18] = EVD68, HeLa R19, read-out: EC50 Exp1
[19] = EVD68, HeLa R19, read-out: EC50 Exp2
[20] = HRVB14, HeLa R19, read-out: EC50 Exp1
[21] = HRVB14, HeLa R19, read-out: EC50 Exp2
[22] = HRVB14, HeLa R19, read-out: EC50 HRV-B14
[23] = CVB3, HAP1, read-out: Exp 1 EC50 Hap1
[24] = CVB3, HAP1, read-out: Exp 2 EC50 Hap1
[25] = CVB3, HAP1, read-out: EC50 Hap1 Average

Compound	EC50 (EV-A71; [8]) [µM]	EC50 (CV-B3 [1]; [12]) [µM]	EC50 (CV-B3 [1]; [13]) [µM]	EC50 (CV-B3 [1]; [16]) [µM]	EC50 (PV-1) [µM]	EC50 (CV-A24) [µM]	EC50 (EV-D68; [17]) [µM]	EC50 (EV-D68; [18]) [µM]	EC50 (EV-D68; [19]) [µM]	EC50 (HRV-A2) [µM]	EC50 (HRV-B14; [22]) [µM]	EC50 (CV-B3 [2]; [23]) [µM]	CC50 (in vitro [4]; CC50 Average) [µM]	CC50 (in vitro [4]; CC50 HelaR19 Average) [µM]	CC50 (in vitro [4]; Exp 1 CC50) [µM]	CC50 (in vitro [4]; Exp 1 CC50 HelaR19) [µM]	CC50 (in vitro [4]; Exp2 CC50) [µM]	CC50 (in vitro [4]; Exp 2 CC50 HelaR19) [µM]	CC50 (in vitro [5]; CC50 Hap1 Average) [µM]	CC50 (in vitro [5]; Exp 1 CC50 Hap1) [µM]	also measured
CC(C)c1ccc(CN(C(=O)c2ccco2)c2ccccc2)cc1 [Compound 19h, N-(4-Isopropylbenzyl)-N-phenylfuran-2-carboxamide]	1.89 ± 0.21	7.95	6.11	7.8	> 30	> 30	> 30	> 30	> 30	> 30	4.64 ± 0.92	4.28	> 30	42.7	> 30	44.5	> 30	41	48.7	48.4	EC50 (EV-A71; [9]): 1.68 µM; EC50 (EV-A71; [10]): 2.1 µM; antiviral activity against CV-B3 (in words) (CV-B3 [1]): showed antiviral activity; effect of the substitution on antiviral activity against CV-B3 (in words) (CV-B3 [1]): decreased the antiviral activity to a larger extent; EC50 (CV-B3 [1]; CVB3, HeLa): 7.62 ± 0.93 µM; EC50 (CV-B3 [1]; [11]): 7.03 µM; EC50 (CV-B3 [1]; [14]): 7.65 µM; EC50 (CV-B3 [1]; [15]): 7.5 µM; EC50 (HRV-B14; [20]): 5.55 µM; EC50 (HRV-B14; [21]): 3.72 µM; antiviral activity against CV-B3 in HAP1 cells (in words) (CV-B3 [2]): showed antiviral activity; EC50 (CV-B3 [2]; [24]): 3.98 µM; EC50 (CV-B3 [3]): > 100 µM; CC50 (HeLa R19 cells; human): 42.8 ± 1.75 µM; cytotoxicity (in words) (HeLa R19 cells; human, monkey): cytotoxicity in a similar range as the parental compound 1; CC50 (in vitro [5]; Exp 2 CC50 Hap1): 49.1 µM; CC50 (in vitro [6]; CC50): 46.8 ± 1.48 µM; CC50 (in vitro [6]; CC50 BGM Average): 46.8 µM; CC50 (in vitro [6]; Exp 1 CC50 BGM): 45.4 µM; CC50 (in vitro [6]; Exp 2 CC50 BGM): 48.3 µM
COc1ccc(N(Cc2ccc(C(F)(F)F)cc2)C(=O)c2ccco2)cc1 [Compound 19e, N-(4-Methoxyphenyl)-N-(4-(trifluoromethyl)benzyl)furan-2-carboxamide]	4.08 ± 0.99	0.73	0.98	0.99	> 30	> 30	4.47 ± 0.26	4.72	4.21	> 30	8.38 ± 0.48	2.14	> 30	54	> 30	53	> 30	55	54.9	55.3	EC50 (EV-A71; EVA71, HeLa R19, read-out: EC50 Average): 4.07 µM; EC50 (EV-A71; [9]): 3.09 µM; EC50 (EV-A71; [10]): 5.06 µM; effect of the substitution on antiviral activity against CV-B3 (in words) (CV-B3 [1]): only marginally affected antiviral activity; EC50 (CV-B3 [1]; [11]): 0.86 µM; EC50 (CV-B3 [1]; [14]): 0.93 µM; EC50 (HRV-B14; [20]): 7.9 µM; EC50 (HRV-B14; [21]): 8.86 µM; EC50 (CV-B3 [2]; [25]): 2.85 µM; EC50 (CV-B3 [2]; [24]): 3.56 µM; EC50 (CV-B3 [3]; read-out: EC50 BGM Average): 2.41 µM; EC50 (CV-B3 [3]; read-out: Exp 1 EC50 BGM): 2.05 µM; EC50 (CV-B3 [3]; read-out: Exp 2 EC50 BGM): 2.76 µM; cytotoxicity (in words) (HeLa R19 cells; human, monkey): cytotoxicity in a similar range as the parental compound 1; CC50 (in vitro [5]; Exp 2 CC50 Hap1): 54.5 µM; CC50 (in vitro [6]; CC50 BGM Average): 55.9 µM; CC50 (in vitro [6]; Exp 1 CC50 BGM): 55 µM; CC50 (in vitro [6]; Exp 2 CC50 BGM): 56.9 µM
O=C(c1ccc[nH]1)N(Cc1ccc(C(F)(F)F)cc1)c1ccccc1 [Compound 22, N-Phenyl-N-(4-(trifluoromethyl)benzyl)-1H-pyrrole-2-carboxamide]	1.27 ± 0.49	1.42	1.58	2.51	> 30	> 30	12.4 ± 0.81	11.6	13.2	> 30	> 30	2.5	> 30	> 100	> 30	> 100	> 30	> 100	> 100	> 100	EC50 (EV-A71; [9]): 0.78 µM; EC50 (EV-A71; [10]): 1.76 µM; effect of the substitution on antiviral activity against CV-B3 (in words) (CV-B3 [1]): little, if any, effect on antiviral activity; EC50 (CV-B3 [1]; [11]): 1.5 µM; EC50 (CV-B3 [1]; [14]): 2.6 µM; EC50 (CV-B3 [1]; [15]): 2.69 µM; EC50 (CV-B3 [2]; [25]): 2.69 µM; EC50 (CV-B3 [2]; [24]): 2.87 µM; EC50 (CV-B3 [3]; read-out: EC50 BGM Average): 2.28 µM; EC50 (CV-B3 [3]; read-out: Exp 1 EC50 BGM): 2.55 µM; EC50 (CV-B3 [3]; read-out: Exp 2 EC50 BGM): 2.01 µM; cytotoxicity (in words) (HeLa R19 cells): did not show any cytotoxicity; CC50 (in vitro [5]; CC50): > 100 µM; CC50 (in vitro [5]; Exp 2 CC50 Hap1): > 100 µM; CC50 (in vitro [6]; CC50): > 100 µM; CC50 (in vitro [6]; CC50 BGM Average): > 100 µM; CC50 (in vitro [6]; Exp 1 CC50 BGM): > 100 µM; CC50 (in vitro [6]; Exp 2 CC50 BGM): > 100 µM
COc1ccc(N(Cc2ccc(F)cc2)C(=O)c2ccccn2)cc1 [Compound 5e, N-(4-fluorobenzyl)-N-(4-methoxyphenyl)picolinamide]	> 30	6.02	6.86	9.32	> 30	> 30	10.5 ± 1.37	11.8	9.08	> 30	> 30	17.5	> 30	> 100	> 30	> 100	> 30	> 100	> 100	> 100	EC50 (CV-B3 [1]; [11]): 6.44 µM; EC50 (CV-B3 [1]; [14]): 8.87 µM; EC50 (CV-B3 [1]; [15]): 8.41 µM; EC50 (CV-B3 [2]; CVB3, HAP1): 15.8 ± 1.65 µM; EC50 (CV-B3 [2]; [25]): 15.9 µM; EC50 (CV-B3 [2]; [24]): 14.2 µM; EC50 (CV-B3 [3]; read-out: EC50 BGM Average): 17.8 µM; EC50 (CV-B3 [3]; read-out: Exp 1 EC50 BGM): 16.7 µM; EC50 (CV-B3 [3]; read-out: Exp 2 EC50 BGM): 18.9 µM; cytotoxicity (in words) (HeLa R19 cells): no cytotoxicity; CC50 (in vitro [5]; CC50): > 100 µM; CC50 (in vitro [5]; Exp 2 CC50 Hap1): > 100 µM; CC50 (in vitro [6]; CC50): > 100 µM; CC50 (in vitro [6]; CC50 BGM Average): > 100 µM; CC50 (in vitro [6]; Exp 1 CC50 BGM): > 100 µM; CC50 (in vitro [6]; Exp 2 CC50 BGM): > 100 µM
COc1ccc(N(Cc2ccc(F)cc2)C(=O)c2cccs2)cc1 [Compound 5d, N-(4-Fluorobenzyl)-N-(4-methoxyphenyl)thiophene-2-carboxamide]	> 30	0.47	0.55	0.31	> 30	> 30	2.82 ± 0.4	2.42	3.21	> 30	9.29 ± 0.36	0.17	> 30	53	> 30	52	> 30	54.1	53.9	53.9	increase of antiviral activity against CV-B3 (CV-B3 [1]): approximately 4 fold; EC50 (CV-B3 [1]; CVB3, HeLa R19, read-out: 50% effective concentration [EC50]): 0.51 ± 0.05 µM; EC50 (CV-B3 [1]; [15]): 0.52 µM; EC50 (HRV-B14; [20]): 9.65 µM; EC50 (HRV-B14; [21]): 8.93 µM; EC50 (CV-B3 [2]; [25]): 0.25 µM; EC50 (CV-B3 [3]; read-out: EC50 BGM Average): 0.63 µM; EC50 (CV-B3 [3]; read-out: Exp 1 EC50 BGM): 0.49 µM; EC50 (CV-B3 [3]; read-out: Exp 2 EC50 BGM): 0.77 µM; cytotoxicity (in words) (HeLa R19 cells; human, monkey): cytotoxicity in a similar range as the parental compound 1; CC50 (in vitro [5]; Exp 2 CC50 Hap1): 54 µM; CC50 (in vitro [6]; CC50): 66 ± 1.05 µM; CC50 (in vitro [6]; CC50 BGM Average): 66 µM; CC50 (in vitro [6]; Exp 1 CC50 BGM): 65 µM; CC50 (in vitro [6]; Exp 2 CC50 BGM): 67.1 µM
(S)-fluoxetine [reference compound]	–	–	–	–	–	–	–	–	–	–	–	–	–	–	–	–	–	–	–	–	antiviral activity against CV-B3 (in words) (CV-B3 [1]): inhibited; cross-resistance of 19d-resistant CV-B3 virus pools (in words) (CV-B3 [1]): cross-resistant; cross-resistance of 19d-resistant EV-D68 virus pools (in words) (EV-D68): cross-resistance; inhibition of EV-D68 replication (in words) (EV-D68): inhibited; inhibition of HRV-A2 replication (in words) (HRV-A2): inhibited; inhibition of HRV-B14 replication (in words) (HRV-B14): inhibited; inhibition of contemporary/clinical isolates of EV-A71, CV-A24v and EV-D68 (in words) [7]: inhibited contemporary strains of EV-D68 and some, but not all, contemporary EV-A71 strains
